Assay results as given in PubChem BioAssay (NCI).
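Compound exposure: 48 hours, 5 concentrations, 96-well plates. GI50 marks 50% less growth. At the TGI there is no net growth.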

Legend:
Test in all cases: NCI anticancer screen, dose series, 48 h
OVCAR-3 ovarian = test system: OVCAR-3 ovarian
HT29 colon = test system: HT29 colon
U251 CNS = test system: U251 CNS
SNB-75 CNS = test system: SNB-75 CNS
MCF7 breast = test system: MCF7 breast
HCC-2998 colon = test system: HCC-2998 colon
CAKI-1 renal = test system: CAKI-1 renal
786-0 renal = test system: 786-0 renal
SF-539 CNS = test system: SF-539 CNS
A549 NSCLC = test system: A549 NSCLC

`OC(CCN1CCN(CCOC(c2ccccc2)c2ccccc2)CC1)c1ccc(Br)cc1` (centres undefined) was tested, and the TGI (OVCAR-3 ovarian) was 28 µM, the TGI (HT29 colon) was 16.5 µM and the TGI (U251 CNS) was 25.1 µM. For the same compound, the TGI (SNB-75 CNS) was 27.5 µM, the TGI (MCF7 breast) was 31.8 µM and the TGI (HCC-2998 colon) was 3.96 µM. The TGI (CAKI-1 renal) was 26.9 µM, the TGI (786-0 renal) was 22.8 µM and the TGI (SF-539 CNS) was 27.6 µM. The TGI (A549 NSCLC) was 30.5 µM.

For `Cn1c2c(c3ccccc31)CCN1C(=O)C3SC21C1C(=O)N(c2ccccc2)C(=O)C31` (centres undefined), the TGI (OVCAR-3 ovarian) was over 100 µM, the TGI (HT29 colon) was over 100 µM and the TGI (U251 CNS) was over 100 µM. The GI50 (SNB-75 CNS) was 13.4 µM, the TGI (SNB-75 CNS) was over 100 µM and the TGI (MCF7 breast) was over 100 µM. The GI50 (HCC-2998 colon) was over 100 µM, the TGI (HCC-2998 colon) was over 100 µM and the TGI (CAKI-1 renal) was over 100 µM. The TGI (786-0 renal) was over 100 µM, the TGI (SF-539 CNS) was over 100 µM and the TGI (A549 NSCLC) was over 100 µM.

In the case of `C[C@@H]1CC[C@@H](C)[C@](C)(CCc2ccoc2)C/C=C\C=C/1C(=O)O`, the TGI (OVCAR-3 ovarian) is reported as over 50 µM, the TGI (HT29 colon) is reported as over 50 µM and the TGI (U251 CNS) is reported as over 50 µM. For the same compound, the TGI (SNB-75 CNS) was over 50 µM, the TGI (MCF7 breast) was over 50 µM and the TGI (HCC-2998 colon) was over 50 µM. The TGI (CAKI-1 renal) was over 50 µM, the TGI (786-0 renal) was over 50 µM and the TGI (SF-539 CNS) was over 50 µM. It also gave a TGI (A549 NSCLC) of over 50 µM.

In the case of `Cc1cc(O)ccc1C1(c2ccc(F)cc2)OC(=O)c2ccccc21` (centres undefined), the TGI (OVCAR-3 ovarian) is reported as 0.882 µM, the TGI (HT29 colon) is reported as 18 µM and the TGI (U251 CNS) is reported as over 49.9 µM. For the same compound, the TGI (SNB-75 CNS) was 8.01 µM, the TGI (MCF7 breast) was 4.38 µM and the TGI (HCC-2998 colon) was 15.3 µM. For the same compound, the TGI (CAKI-1 renal) was 15.3 µM, the TGI (786-0 renal) was 22.2 µM and the TGI (SF-539 CNS) was 9.29 µM. The TGI (A549 NSCLC) was 18.3 µM.

In the case of `O=C(/C=C(\O)c1ccccc1)/C(=C/C(=O)c1ccccc1)NN=C(c1ccccc1)c1ccccc1`, the TGI (OVCAR-3 ovarian) is reported as 67.1 µM, the TGI (HT29 colon) is reported as over 100 µM and the TGI (U251 CNS) is reported as over 100 µM. It also gave a TGI (SNB-75 CNS) of over 100 µM, a TGI (MCF7 breast) of over 100 µM and a TGI (HCC-2998 colon) of 58.7 µM. The TGI (CAKI-1 renal) was over 100 µM, the TGI (786-0 renal) was over 100 µM and the TGI (SF-539 CNS) was over 100 µM. For the same compound, the TGI (A549 NSCLC) was over 100 µM.

For `COc1cccc(NC(=O)CC(=O)NNCC(=O)Nc2nnc(-c3ccc(N(CCC#N)S(=O)(=O)c4ccccc4)cc3)s2)c1`, the TGI (OVCAR-3 ovarian) was over 100 µM, the TGI (U251 CNS) was over 100 µM and the TGI (HCC-2998 colon) was over 100 µM. It also gave a TGI (CAKI-1 renal) of over 100 µM, a TGI (SF-539 CNS) of over 100 µM and a TGI (A549 NSCLC) of over 100 µM.

`N#CC12C(=O)N3C(=NC(c4ccccc4)NC3c3ccccc3)C1(C#N)C(c1ccccc1)NC1=C2CCCC1` (centres undefined) gave a TGI (OVCAR-3 ovarian) of over 100 µM, a TGI (HT29 colon) of over 100 µM and a TGI (U251 CNS) of over 100 µM. It also gave a TGI (SNB-75 CNS) of over 100 µM, a TGI (MCF7 breast) of over 100 µM and a TGI (HCC-2998 colon) of over 100 µM. The TGI (CAKI-1 renal) was over 100 µM, the TGI (786-0 renal) was over 100 µM and the TGI (A549 NSCLC) was over 100 µM.

`CN(C)C(=O)C(F)(F)C(c1ccc(Br)cc1)C1C(=O)N(C)C(=O)N(C)C1=O` (centres undefined) gave a TGI (OVCAR-3 ovarian) of over 100 µM, a TGI (U251 CNS) of over 100 µM and a TGI (SNB-75 CNS) of over 100 µM. For the same compound, the TGI (MCF7 breast) was over 100 µM, the TGI (HCC-2998 colon) was over 100 µM and the TGI (CAKI-1 renal) was over 100 µM. It also gave a TGI (786-0 renal) of over 100 µM and a TGI (A549 NSCLC) of over 100 µM.

`CN1Cc2c(nc(-c3ccc(Br)cc3)c[n+]2[O-])N(C)C1` was tested, and the TGI (OVCAR-3 ovarian) was over 100 µM, the TGI (HT29 colon) was over 100 µM and the TGI (U251 CNS) was over 100 µM. The TGI (SNB-75 CNS) was over 100 µM, the TGI (CAKI-1 renal) was over 100 µM and the TGI (786-0 renal) was over 100 µM. It also gave a TGI (SF-539 CNS) of over 100 µM and a TGI (A549 NSCLC) of over 100 µM.

`CC(=O)CC(C)(C)NC(=O)[C@@]1(O)CC[C@H]2[C@@H]3CCC4=CC(=O)CC[C@@H]4[C@H]3CC[C@@]21C` gave a TGI (OVCAR-3 ovarian) of over 100 µM, a TGI (HT29 colon) of over 100 µM and a TGI (U251 CNS) of over 100 µM. For the same compound, the TGI (SNB-75 CNS) was over 100 µM, the TGI (HCC-2998 colon) was over 100 µM and the TGI (786-0 renal) was over 100 µM. It also gave a TGI (SF-539 CNS) of over 100 µM and a TGI (A549 NSCLC) of over 100 µM.

`CC(=O)O[C@H]1CN(S(=O)(=O)c2ccc(C)cc2)C[C@@H]1C1CCCCC1` showed a TGI (OVCAR-3 ovarian) of 43.5 µM, a TGI (HT29 colon) of 84.7 µM and a TGI (U251 CNS) of over 100 µM. For the same compound, the TGI (SNB-75 CNS) was 63.1 µM, the TGI (MCF7 breast) was 42.6 µM and the TGI (HCC-2998 colon) was over 100 µM. It also gave a TGI (CAKI-1 renal) of 83.7 µM and a TGI (SF-539 CNS) of 10.5 µM.
